Columns and labels:
human A2B-receptor = target: T1, human A2B-receptor (Homo sapiens, UniProt P29275); experiment: Receptor binding assay with [3H]ZM241385 on recombinant A2B-adenosine receptors in HEK cells; details: for Ki: Table 2, [3H]ZM241385, read-out: A2B K1
T1 construct: purchased Receptor Biology USA via Perkin Elmer Life Sciences, Cologne, Germany; host or cells: HEK cells (membranes)
T1 sequence (P29275 1-332): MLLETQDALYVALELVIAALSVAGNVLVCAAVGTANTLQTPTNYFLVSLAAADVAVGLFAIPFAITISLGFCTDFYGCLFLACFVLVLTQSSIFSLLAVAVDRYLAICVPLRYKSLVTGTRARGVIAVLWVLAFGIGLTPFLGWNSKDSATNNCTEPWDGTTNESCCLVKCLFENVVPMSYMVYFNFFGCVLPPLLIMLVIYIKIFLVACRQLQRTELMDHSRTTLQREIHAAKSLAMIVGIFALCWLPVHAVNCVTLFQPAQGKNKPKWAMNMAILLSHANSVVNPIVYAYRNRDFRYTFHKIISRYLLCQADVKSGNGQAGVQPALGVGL
Description: (§1) The data of the biological tests that are cited below results from radioligand-binding assays on A1, A2A, A2B and A3 adenosine receptors (ARs).
(§2) The following selective radioligands are used in the biological tests: • [^3H]CCPA (for A1 ARs) [Klotz et al., Naunyn-Schmiedeberg's Arch. Pharmacol., 340, 679 (1989)] • [^3]MSX-2 (for A2A ARs) [Muiller et al., Eur. J. Pharm. Sci., 10, 259 (2000)] • [^3H]ZM241385 (for A2B ARs_[X.-D. Ji, K. A. Jacobson, Drug Des. Discov., 16, 217 (1999)] • [^3H]PSB-11 (new antagonistic radioligand for human A3 ARs) [M. Dieckmann, M. Thorand, V. Ozola, C. E. Muiller, in Vorbereitung [Preparation] (2001)]. • [^125I]AB-MECA (for rat-A3 ARs) [Olah et al., Mol. Pharmacol., 45, 978 (1994)]. Description of the Assays That are Used for Testing Substances Production of Tissue Preparations Made from Rat Brains
In addition, A28-adenosine receptor membranes are prepared, whereby, for example, finished prepared membranes of HEK cells, which express the human A2B-receptor in high density (about 4 pmol/mg of protein), were available commercially (Receptor Biology USA via Perkin Elmer Life Sciences, Cologne, Germany).
The test substances are dissolved in DMSO to 10 mmol. The final concentration of DMSO in the assay is 2.5% for A1- and A2A-adenosine receptor assays and 1-2% for A2B- and A3-assays. Dilution series of the test substances are produced from the stock solution. Five to eight different test concentrations, which comprise 3 orders of magnitude (e.g., 1 nm to 1000 nm), are used. […]
(§3) The mean value is calculated from three independent experiments. IC50 and K, values are obtained from the Cheng-Prusoff equation, the concentration and the KD value of the radioligand. For calculation, the program GraphPadPrism™, Version 3.0 (GraphPad, San Diego, Calif., USA), was used.

A1 adenosine receptor = target: T2, A1 adenosine receptor (Rattus norvegicus, UniProt P25099); experiment: Radioligand binding with [3H]CCPA on A1-adenosine receptors, rat brain cortex membranes; design: tissue Pel Freez Company (Rogers, Ark., USA); host or cells: rat brain cerebral cortex membranes; details: for Ki: Table 2, [3H]CCPA, read-out: A1 K1
T2 sequence (P25099 1-326): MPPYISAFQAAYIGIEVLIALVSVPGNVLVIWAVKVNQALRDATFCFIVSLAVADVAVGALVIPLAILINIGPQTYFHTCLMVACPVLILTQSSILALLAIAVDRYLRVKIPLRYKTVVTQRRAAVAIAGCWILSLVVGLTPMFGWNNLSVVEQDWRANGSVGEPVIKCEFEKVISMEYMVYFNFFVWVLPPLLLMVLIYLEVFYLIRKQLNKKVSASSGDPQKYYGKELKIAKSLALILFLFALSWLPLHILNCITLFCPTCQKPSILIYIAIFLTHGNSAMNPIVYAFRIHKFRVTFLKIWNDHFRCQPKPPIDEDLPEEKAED
Description: as §1, §2
For the preparations, deep-frozen rat brains of the Pel Freez Company (Rogers, Ark., USA) are used. The rat brains are thawed in 0.32 M saccharose solution, the cortex is cut off, and the striata are prepared outside.
The cell decomposing of the cerebral cortex is carried out with a glass-Teflon homogenizer (stages 5-6, 10 seconds) in 0.32 M saccharose solution. The membranes are purified over various centrifuging steps. With centrifuging at 600 g, 4° C., for 10 minutes, a large amount of cell debris is separated via the P1 fraction, and the supernatant (P2 fraction) is further worked up: in the subsequent three centrifuging steps (35,000 g; 4° C.; 60 minutes), a pellet is produced that is resuspended in 50 mmol of TRIS buffer, pH 7.4 with the Ultraturrax (stages 3-4, 3 seconds); the respective supernatant is discarded. The striata are added to cold TRIS buffer, homogenized with the Ultraturrax in stages 3 to 4-(3 seconds) and then centrifuged at 35,000 g, 4° C., for 20 minutes. The supernatant is discarded, and the pellet is resuspended in 50 mmol of TRIS buffer (50 mmol, pH 7.4). The washing process is repeated twice more. The membrane preparations are stored at −80° C. and are held for several months. The cerebral cortex membrane preparation is used for A1-radioligand binding studies, and the striatum is used for A2A-radiologiand binding studies.
The test substances are dissolved in DMSO to 10 mmol. The final concentration of DMSO in the assay is 2.5% for A1- and A2A-adenosine receptor assays and 1-2% for A2B- and A3-assays. Dilution series of the test substances are produced from the stock solution. Five to eight different test concentrations, which comprise 3 orders of magnitude (e.g., 1 nm to 1000 nm), are used.
Radioligand Binding Studies with [^3H]CCPA on A1-Adenosine Receptors:
The mixture is incubated for 90 minutes in an oscillating water bath at 23° C. Then, it is filtered off with a Brandel cell-harvester and washed twice more with ice-cooled TRIS buffer, 50 mmol, pH 7.4 (3 ml). The filter plates are conveyed in scintillation vials, doused with 2.5 ml of Ultima Gold Scintillation cocktail and incubated for at least 6 hours before they are measured in a scintillation counter.
as §3

Row | Compound | A2B % inhib. @ 1 μmol (human A2B-receptor) | Ki (human A2B-receptor) | Ki (A1 adenosine receptor) | A1 % inhib. @ 10 μmol (A1 adenosine receptor)
1 | 4-(chloropyrazolyl)-1-(3-phenylpropyl)-[1,2,4-]triazolo[4,3-a]quinoxaline [Y = C—CH2—CH2—CH2-Ph, R5 = H, R6 = Cl] | (18%) | > 1000 nM | 6 nM | 
2 | COc1ccc2c(c1)nc(-c1cc(Cl)n[nH]1)c1nnc(Cc3cccs3)n12 [4-[3(5)-Chloro-1H-pyrazol-5(3)-yl]-7-methoxy-1-(2-thienylmethyl)-[1,2,4]triazolo[4,3-a]-quinoxaline] | (0%) | > 1000 nM | 900 nM | 
3 | Clc1cc(-c2nc3ccccc3n3c(-c4ccoc4)nnc23)n[nH]1 [Y = C-(3-Furyl), R5 = H, R6 = Cl] | (25%) | > 1000 nM | 320 nM | 
4 | Cn1nc(-c2nc3ccccc3n3c(Cc4cccs4)nnc23)cc1Cl [Y = C—CH2-(2-Thienyl), R5 = CH3, R6 = Cl, 4-(5-Chloro-1H-1-methyl-pyrazol-3-yl)-1-(2-thienylmethyl)-[1,2,4]triazolo[4,3-a]-quinoxaline] | (22%) | > 1000 nM | 210 nM | 
5 | Clc1cc(-c2nc3ccccc3n3cnnc23)[nH]n1 [Y = C—H, R5 = H, R6 = Cl] | (0%) | > 1000 nM | > 10000 nM | (35%)

More lines, main results first:

Row | A2B % inhib. @ 1 μmol (human A2B-receptor) | Ki (human A2B-receptor) | Ki (A1 adenosine receptor) | Compound | A1 % inhib. @ 10 μmol (A1 adenosine receptor)
6 | (8%) | > 1000 nM | > 10000 nM | COc1ccc2c(c1)nc(-c1cc(Cl)[nH]n1)c1nncn12 [Y = C—H, R3 = OCH3, R5 = H, R6 = Cl, 4-[3(5)-Chloro-1H-pyrazol-5(3)-yl]-7-methoxy-[1,2,4]triazolo[4,3-a]-quinoxaline] | (13%)
7 | (13%) | > 1000 nM | 670 nM | Clc1cc(-c2nc3ccccc3n3nnnc23)n[nH]1 [Y = N, R5 = H, R6 = Cl, 4-[3(5)-Chloro-1H-pyrazol-5(3)-yl]tetrazolo[1,5-a]quinoxaline] | 
